Results from US20130150327A1, “COMPOSITION FOR PREVENTING HAIR LOSS OR STIMULATING HAIR GROWTH” (Biopid Corporation, priority 2010, published 2013).

Experiments:
[1] = system: mice with DNFB-induced allergic dermatitis; assay: Animal Test 1: hair follicle growth in back skin tissue of mice with DNFB-induced allergic dermatitis; format: in vivo, mouse; settings: comparators: Tacrolimus ointment (FIG. 5), 0.1% dexamethasone in ethanol (FIG. 6), twice a day, 10 days
Description: In order to prepare animal models with an atopic dermatitis, or a contact dermatitis and allergic dermatitis, After 1 week of sensitizing with DNFB, DNFB was applied to the backs of mice total 10 times per 2 weeks to induce an artificial allergic dermatitis. […] Since applying DNFB five times, the composition of the present invention, Tacrolimus ointment (trade name, Protopic, Astella Pharma Korea, Inc.), and dexamethasone (Sigma Chem. Co. USA, 0.1% solution dissolved in ethanol) were applied to the backs of mice occurred with inflammation twice a day in the amount of 60 ml, respectively. At 10 days after applying, the mice tissues were collected to test experiments.

C3H/HeNCrljBgi mice = assay: Animal Test 3: organic acid effect and soy extracted phospholipid effect, hair growth area; format: in vivo, mouse; settings: 2.5 weeks, twice a day, phospholipids 20 mg/ml, minoxidil 5% applied to all groups except Group 1 30 minutes before the composition
Protocol: In addition, the composition was prepared by using soy lecithin (phospholipid extracted from soy, #86015-1201, Junsei Chemical, Japan), and then effect of the composition on hair growth was compared. C3H/HeNCrljBgi species of 7 ages of weeks (Orient Bio, Sungnam, Korea) were purchased as the experimental mice, and then used for the test. […] The composition of the present invention was applied for 2.5 weeks, and 60 ml of the composition was applied on the backs of the hairs-removed mice twice a day. The concentration of the applied phospholipids was 20 mg/ml. As a measurement of hair growth in the mice, the pictures of the mice of each experimental group were taken, respectively, and then the ratio of the hair growth area in the hairs-removed area was calculated.

| Structure (SMILES) | hair follicle growth in mice tissues [1] | Hair growth area (ratio of the hair growth area in the hairs-removed area) (C3H/HeNCrljBgi mice) |
| --- | --- | --- |
| C=CC[C@@H]1/C=C(\C)C[C@H](C)C[C@H](OC)[C@H]2O[C@@](O)(C(=O)C(=O)N3CCCC[C@H]3C(=O)O[C@H](/C(C)=C/[C@@H]3CC[C@@H](O)[C@H](OC)C3)[C@H](C)[C@@H](O)CC1=O)[C@H](C)C[C@@H]2OC [Tacrolimus, tacrolimus] | new hair follicles were formed |  |
| Nc1cc(N2CCCCC2)nc(N)[n+]1[O-] [Minoxidil, minoxidil] |  | 10.2 |
